What was measured:
Format in all cases: biochemical
[1] = molecular target: T1, KAT8 (Homo sapiens, UniProt Q9H7Z6); assay: Radioactive KAT8 inhibition assay; conditions: read-out: IC50 KAT8 (5 nM); enzyme 5 nM; 2-fold serial dilution from 200 μM; NI = no inhibition at 200 μM; mean ± SD of three independent experiments
T1 construct: using the previously purified KAT8 (173–458, 5 nM); 6xHis tag with TEV protease cleavage site (N, cleaved yes); made in house; host or cells: E. coli BL21(DE3)
T1 sequence (Q9H7Z6 173-458): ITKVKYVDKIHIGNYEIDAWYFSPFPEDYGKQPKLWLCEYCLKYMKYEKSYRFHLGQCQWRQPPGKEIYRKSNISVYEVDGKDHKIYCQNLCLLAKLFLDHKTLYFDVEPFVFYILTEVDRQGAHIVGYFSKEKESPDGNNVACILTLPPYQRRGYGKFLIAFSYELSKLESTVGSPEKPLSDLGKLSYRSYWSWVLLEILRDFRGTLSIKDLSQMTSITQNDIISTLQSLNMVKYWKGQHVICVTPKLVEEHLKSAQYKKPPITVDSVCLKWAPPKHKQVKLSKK
Outline: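 Purified KAT8 preincubated 20 min at rt with inhibitor (2-fold dilutions from 200 μM, 1% DMSO), then [3H]Ac-CoA and biotinylated peptide added for 4 h at rt. Product captured on streptavidin scintillant plates and counted. IC50 by nonlinear regression of % inhibition, biological triplicates.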

[2] = molecular target: KDAC1 (Homo sapiens, UniProt Q13547); assay: KDAC inhibition assay, KDAC1; conditions: mean of three technical replicates
KDAC1, sequence (Q13547 whole entry, canonical isoform): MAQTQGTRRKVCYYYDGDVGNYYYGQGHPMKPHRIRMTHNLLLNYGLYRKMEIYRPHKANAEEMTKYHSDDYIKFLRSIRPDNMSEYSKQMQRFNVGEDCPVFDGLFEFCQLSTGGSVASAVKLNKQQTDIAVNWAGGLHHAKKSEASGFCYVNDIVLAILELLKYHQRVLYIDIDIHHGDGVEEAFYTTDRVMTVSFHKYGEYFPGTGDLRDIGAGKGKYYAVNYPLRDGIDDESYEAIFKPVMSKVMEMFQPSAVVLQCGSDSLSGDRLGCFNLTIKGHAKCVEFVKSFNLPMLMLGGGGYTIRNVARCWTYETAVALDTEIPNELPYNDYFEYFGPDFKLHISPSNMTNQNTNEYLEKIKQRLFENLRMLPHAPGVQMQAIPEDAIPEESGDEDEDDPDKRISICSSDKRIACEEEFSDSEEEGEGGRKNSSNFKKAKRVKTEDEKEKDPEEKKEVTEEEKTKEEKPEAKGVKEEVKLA
Description: (§1) KDAC1, 2, 3 6, and 8 inhibition assays were performed as described previously.[52] Briefly, the relevant human recombinant KDAC was diluted in an assay buffer with the following composition: 150 mM NaCl, 25 mM Tris–HCl (pH 8.0), 2.7 mM KCl, and 1 mM MgCl2; BSA (0.1 mg/mL) was also added in the case of KDAC1. Forty microliters of this solution were added to 10 μL of each inhibitor ([…]) and 50 μL of KDAC Assay substrate (Boc-Lys-(Ac)-AMC, 7–100 μM final concentration, depending on the KDAC isoform), and the resulting solution was mixed. […] After thorough mixing of the resulting solution, the plate was covered and incubated at 37 °C for 25 min and the fluorescence (λemission = 460 nm; λexcitation = 390 nm) was measured on a EnSight Multimode Plate Reader (Perkin Elmer). The shown values are average of three technical replicates ± SD.

[3] = molecular target: KDAC2 (Homo sapiens, UniProt Q92769); assay: KDAC inhibition assay, KDAC2; conditions: mean of three technical replicates
KDAC2, sequence (Q92769 whole entry): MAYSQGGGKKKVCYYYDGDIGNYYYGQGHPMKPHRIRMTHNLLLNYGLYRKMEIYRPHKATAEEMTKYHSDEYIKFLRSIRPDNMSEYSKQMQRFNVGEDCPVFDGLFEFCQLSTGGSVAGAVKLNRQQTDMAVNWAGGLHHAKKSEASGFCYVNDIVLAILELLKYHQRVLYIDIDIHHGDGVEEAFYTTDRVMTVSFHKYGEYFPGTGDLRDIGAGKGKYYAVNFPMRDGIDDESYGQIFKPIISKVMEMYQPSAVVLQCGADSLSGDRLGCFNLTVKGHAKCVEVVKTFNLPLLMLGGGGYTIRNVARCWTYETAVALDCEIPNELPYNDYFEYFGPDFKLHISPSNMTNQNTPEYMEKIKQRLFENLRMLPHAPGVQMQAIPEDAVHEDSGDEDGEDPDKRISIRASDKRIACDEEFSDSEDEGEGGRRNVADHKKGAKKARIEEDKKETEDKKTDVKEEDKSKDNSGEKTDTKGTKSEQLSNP
Description: as §1

[4] = molecular target: KDAC3 (Homo sapiens, UniProt O15379); assay: KDAC inhibition assay, KDAC3; conditions: mean of three technical replicates
KDAC3, sequence (O15379 whole entry): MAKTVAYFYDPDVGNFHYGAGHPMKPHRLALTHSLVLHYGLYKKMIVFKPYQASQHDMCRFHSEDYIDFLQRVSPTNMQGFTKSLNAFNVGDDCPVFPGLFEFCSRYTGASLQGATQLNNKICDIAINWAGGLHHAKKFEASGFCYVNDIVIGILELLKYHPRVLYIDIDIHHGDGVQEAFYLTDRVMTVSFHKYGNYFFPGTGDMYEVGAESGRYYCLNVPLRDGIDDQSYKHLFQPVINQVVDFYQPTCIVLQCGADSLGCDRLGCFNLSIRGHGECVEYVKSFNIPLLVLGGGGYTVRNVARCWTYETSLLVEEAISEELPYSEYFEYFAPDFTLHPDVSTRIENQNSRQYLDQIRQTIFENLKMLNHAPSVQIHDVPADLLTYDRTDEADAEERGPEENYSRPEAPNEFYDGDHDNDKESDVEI
KDAC3, sequence (Q9Y618 395-489 partner limits assumed): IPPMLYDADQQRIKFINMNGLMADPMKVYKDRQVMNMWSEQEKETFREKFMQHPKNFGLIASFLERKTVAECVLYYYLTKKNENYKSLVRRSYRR
Description: as §1

[5] = molecular target: T2, KDAC6 (Homo sapiens, UniProt Q9UBN7); assay: KDAC inhibition assay, KDAC6; conditions: mean of three technical replicates
T2 sequence (Q9UBN7 1-1215): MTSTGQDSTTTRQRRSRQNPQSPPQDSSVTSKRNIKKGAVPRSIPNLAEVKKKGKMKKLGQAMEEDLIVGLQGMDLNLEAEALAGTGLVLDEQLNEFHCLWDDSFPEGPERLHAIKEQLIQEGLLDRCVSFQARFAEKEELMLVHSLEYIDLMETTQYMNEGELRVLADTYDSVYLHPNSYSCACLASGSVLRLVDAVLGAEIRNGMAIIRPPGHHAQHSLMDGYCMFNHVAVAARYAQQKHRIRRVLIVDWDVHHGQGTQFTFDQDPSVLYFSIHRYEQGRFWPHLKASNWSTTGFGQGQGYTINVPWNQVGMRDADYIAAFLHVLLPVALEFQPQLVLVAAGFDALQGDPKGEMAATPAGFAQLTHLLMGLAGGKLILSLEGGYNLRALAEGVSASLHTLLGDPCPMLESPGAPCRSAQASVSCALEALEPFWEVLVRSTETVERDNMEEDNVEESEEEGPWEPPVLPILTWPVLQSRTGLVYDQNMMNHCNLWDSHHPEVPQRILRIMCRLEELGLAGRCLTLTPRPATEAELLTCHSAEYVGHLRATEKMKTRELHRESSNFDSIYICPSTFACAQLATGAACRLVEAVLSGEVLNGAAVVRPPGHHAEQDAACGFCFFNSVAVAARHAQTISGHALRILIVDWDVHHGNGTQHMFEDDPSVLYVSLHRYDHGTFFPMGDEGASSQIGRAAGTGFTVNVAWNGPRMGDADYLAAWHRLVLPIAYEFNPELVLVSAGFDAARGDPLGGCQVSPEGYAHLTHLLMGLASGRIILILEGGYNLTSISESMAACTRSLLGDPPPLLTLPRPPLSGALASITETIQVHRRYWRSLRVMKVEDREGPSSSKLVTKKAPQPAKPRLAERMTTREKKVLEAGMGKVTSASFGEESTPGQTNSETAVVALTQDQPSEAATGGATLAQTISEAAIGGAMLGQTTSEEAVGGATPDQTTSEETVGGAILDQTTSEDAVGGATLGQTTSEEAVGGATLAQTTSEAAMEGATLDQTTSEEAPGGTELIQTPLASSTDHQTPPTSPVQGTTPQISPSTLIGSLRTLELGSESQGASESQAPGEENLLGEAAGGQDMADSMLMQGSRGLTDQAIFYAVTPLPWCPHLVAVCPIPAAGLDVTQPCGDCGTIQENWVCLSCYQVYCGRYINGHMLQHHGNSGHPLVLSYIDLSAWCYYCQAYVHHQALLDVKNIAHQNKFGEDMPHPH
Description: as §1

[6] = molecular target: T3, KDAC8 (Homo sapiens, UniProt Q9BY41); assay: KDAC inhibition assay, KDAC8; conditions: mean of three technical replicates
T3 sequence (Q9BY41 1-377): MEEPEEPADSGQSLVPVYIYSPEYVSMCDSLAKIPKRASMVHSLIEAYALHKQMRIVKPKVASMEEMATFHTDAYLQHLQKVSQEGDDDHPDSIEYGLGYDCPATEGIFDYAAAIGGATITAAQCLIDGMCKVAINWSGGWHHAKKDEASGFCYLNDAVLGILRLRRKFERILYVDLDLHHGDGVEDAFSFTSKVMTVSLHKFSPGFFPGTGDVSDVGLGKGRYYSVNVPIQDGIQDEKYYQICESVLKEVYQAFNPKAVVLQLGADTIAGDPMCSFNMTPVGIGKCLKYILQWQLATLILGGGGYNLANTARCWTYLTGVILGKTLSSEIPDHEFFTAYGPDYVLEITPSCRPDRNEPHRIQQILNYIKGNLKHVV
Description: as §1

| IC50 [1] | inhibition at 50 µM [2] | inhibition at 100 µM [2] | inhibition at 50 µM [3] | inhibition at 100 µM [3] | inhibition at 50 µM [4] | inhibition at 100 µM [4] | inhibition at 50 µM [5] | inhibition at 100 µM [5] | inhibition at 50 µM [6] | inhibition at 100 µM [6] | Compound |
| --- | --- | --- | --- | --- | --- | --- | --- | --- | --- | --- | --- |
| 8.1 ± 0.5 µM | 0.04% | 0.5% | 0.03% | 0.4% | 0.02% | 0.6% | 0.6% | 2.1% | 0.04% | 0.6% | O=C(O)c1ccc(N2N=C(c3ccccc3)/C(=C/c3ccc[nH]3)C2=O)cc1 [Compound 34, (Z)-4-(4-((1H-Pyrrol-2-yl)methylene)-5-oxo-3-phenyl-4,5-dihydro-1H-pyrazol-1-yl)benzoic Acid] |
| 12.1 ± 0.6 µM | 0.03% | 0.3% | 0.01% | 0.7% | 0.5% | 1.1% | 0.4% | 1.3% | 0.02% | 0.8% | CC1=NN(c2ccc(C(=O)O)cc2)C(=O)/C1=C\c1ccc[nH]1 [Compound 19, (Z)-4-(4-((1H-Pyrrol-2-yl)methylene)-3-methyl-5-oxo-4,5-dihydro-1H-pyrazol-1-yl)benzoic Acid] |
| > 200 µM | 0.7% | 1.3% | 75.4% | 87.6% | 54.5% | 86.2% | 87.2% | 98.1% | 77.6% | 89.1% | CC1=NN(c2ccc(C(=O)O)cc2)C(=O)/C1=C\c1ccc(-c2cc(C)c(C)cc2[N+](=O)[O-])o1 [VII (C646), reference compound] |
